Earlier results in patent US5977101A, “Benzimidazoles/Imidazoles Linked to a Fibrinogen Receptor Antagonist Template Having Vitronectin Receptor Antagonist Activity” (SmithKline Beecham Corporation, priority 1996, dated 1999).

Columns and labels:
osteoclasts = settings: Sato et al. 1990; Bertolini et al.
bone resorption [1] = settings: Sato et al., J. Cell Biol. 1990
bone resorption [2] = settings: rat; Fisher et al., Endocrinology 1993

| Substance | inhibition of attachment of osteoclasts to bone (osteoclasts) | inhibition of bone resorption in tissue culture (bone resorption [1]) | inhibition of bone resorption in vivo (bone resorption [2]) |
| --- | --- | --- | --- |
| cylco-S,S-N^α -acetyl-cysteinyl-N^α -methyl-argininyl-glycyl-aspartyl-penicillamine | inhibits | – | – |
| echistatin | inhibits | potent inhibitor | inhibits |
